The values that follow come from US4797395A, “1-Acyloxyalkyl esters of cephalosporin” (Takeda Chemical Industries, Ltd., priority 1983, dated 1989).

The AUC is the area under the concentration-time curve, a measure of exposure. High values mean more exposure, low ones less exposure.

For data set [1] the following is noted: mouse, in vivo. Here is the method:
The compounds of Examples (compound Nos. 1, 2, 3, 4, 5, 6, 7 and 8) and, as a control compound, the pivaloyloxymethyl ester of compound [II] (hereinafter referred to briefly as compound A) are administered orally to mice, each compound to one animal, in the dose of 100 mg/kg in terms of the non-ester, i.e. compound [II]. At 0.25, 0.5, 1.0 and 2.0 hours after administration, the concentration of compound [II] in the plasma of each mouse is measured by the cup method using Proteus mirabilis Eb 313 as the test organism and the area under plasma concentration-time curve from zero to 2 hours (AUC) is calculated. As a control, compound [II] is subcutaneously administered to a mouse and the AUC value is calculated as above. The bioavailability is calculated by means of the following equation. [formula]

The test system of another data set is Staphylococcus aureus. Particulars: gram-positive; Antimicrobial Agent and Chemotherapy 14, 557-568 (1978); cited from earlier work.
A further data set deals with Escherichia coli. To be noted: gram-negative; Antimicrobial Agent and Chemotherapy 14, 557-568 (1978); cited from earlier work.
A further data set deals with Klebsiella pneumoniae. Particulars: gram-negative; Antimicrobial Agent and Chemotherapy 14, 557-568 (1978); cited from earlier work.
The test system of another data set is Proteus vulgaris. Particulars: gram-negative; Antimicrobial Agent and Chemotherapy 14, 557-568 (1978); cited from earlier work.
In the next data set the test system is Proteus mirabilis. To be noted: gram-negative; Antimicrobial Agent and Chemotherapy 14, 557-568 (1978); cited from earlier work.
A further data set deals with Proteus morganii. Particulars: gram-negative; Antimicrobial Agent and Chemotherapy 14, 557-568 (1978); cited from earlier work.

Structures can show the parent of a compound that is named as a salt. Where two headings read alike, the source gives them in different places.

The compound `CC(C)C(OC(=O)C1=C(CSc2nnnn2CCN(C)C)CS[C@@H]2[C@H](NC(=O)Cc3csc(N)n3)C(=O)N12)OC(=O)C1CCCCC1.Cl.Cl` (stereo partly drawn) [Compound No. 1, 1-(Cyclohexylcarbonyloxy)-2-methylpropyl 7β-[2-(2-aminothiazol-4-yl)acetamido]-3-[[[1-(2-dimethylaminoethyl) -1H-tetrazol-5-yl]thio]methyl]ceph-3-em-4-carboxylate dihydrochloride] had a Bioavailability in data set [1] (100 mg/kg, 120 min) of 94.4%. Besides, the “Plasma level of non-ester (compound [II]), 0.25 hr” value (“Plasma level of non-ester … 0.25 hr” below) in data set [1] (po, 100 mg/kg, 15 min) is 66300 ng/mL. For the same compound, the “Plasma level of non-ester (compound [II]), 0.5 hr” value (“Plasma level of non-ester … 0.5 hr” for short) in data set [1] (po, 100 mg/kg, 30 min) was found to be 34500 ng/mL. Also, the “Plasma level of non-ester (compound [II]), 1.0 hr” value (“Plasma level of non-ester … 1.0 hr” for short) in data set [1] (po, 100 mg/kg, 60 min) worked out at 8900 ng/mL. In addition, in data set [1] (po, 100 mg/kg, 120 min), the AUC came to 36600 ng·h/mL and the “Plasma level of non-ester (compound [II]), 2.0 hr” value (“Plasma level of non-ester … 2.0 hr” for short) is 900 ng/mL.

Consider `CCCCC(=O)OC(OC(=O)C1=C(CSc2nnnn2CCN(C)C)CS[C@@H]2[C@H](NC(=O)Cc3csc(N)n3)C(=O)N12)C1CCCCC1.Cl.Cl` (stereo partly drawn) [Compound No. 7, 1-n-Pentanoyloxy-1-cyclohexylmethyl 7β-[2-(2-aminothiazol-4-yl)acetamido]-3-[[[1-(2-dimethylaminoethyl)-1H-tetrazol-5-yl]thio]methyl]ceph-3-em-4-carboxylate dihydrochloride], for which the Bioavailability in data set [1] (100 mg/kg, 120 min) is 88.9%. Further, in data set [1] (po, 100 mg/kg, 15 min), the “Plasma level of non-ester … 0.25 hr” value was found to be 36400 ng/mL. In addition, the “Plasma level of non-ester … 0.5 hr” value in data set [1] (po, 100 mg/kg, 30 min) stood at 30000 ng/mL. The “Plasma level of non-ester … 1.0 hr” value in data set [1] (po, 100 mg/kg, 60 min) worked out at 17000 ng/mL. Further, in data set [1] (po, 100 mg/kg, 120 min), the AUC stood at 34500 ng·h/mL and the “Plasma level of non-ester … 2.0 hr” value came out at 3200 ng/mL.

Regarding `CCCC(=O)OC(OC(=O)C1=C(CSc2nnnn2CCN(C)C)CS[C@@H]2[C@H](NC(=O)Cc3csc(N)n3)C(=O)N12)C1CCCCC1` (stereo partly drawn) [Compound No. 8, 1-n-Butyryloxy-1-cyclohexylmethyl 7β-[2-(2-aminothiazol-4-yl)acetamido]-3-[[[1-(2-dimethylaminoethyl) -1H-tetrazol-5-yl]thio]methyl]ceph-3-em-4-carboxylate dihydrochloride], the Bioavailability in data set [1] (100 mg/kg, 120 min) was found to be 103.5%. For the same compound, in data set [1] (po, 100 mg/kg, 15 min), the “Plasma level of non-ester … 0.25 hr” value was determined as 50000 ng/mL. Further, the “Plasma level of non-ester … 0.5 hr” value in data set [1] (po, 100 mg/kg, 30 min) amounted to 39600 ng/mL. Further, the “Plasma level of non-ester … 1.0 hr” value in data set [1] (po, 100 mg/kg, 60 min) was determined as 15600 ng/mL. Further, in data set [1] (po, 100 mg/kg, 120 min), the AUC is 40200 ng·h/mL and the “Plasma level of non-ester … 2.0 hr” value is 2330 ng/mL.

In data set [1] (100 mg/kg, 120 min), `CN(C)CCn1nnnc1SCC1=C(C(=O)OC(OC(=O)C2CCCCC2)C2CCCCC2)N2C(=O)[C@@H](NC(=O)Cc3csc(N)n3)[C@H]2SC1.Cl.Cl` (stereo partly drawn) [compound 2, 1-(Cyclohexylcarbonyloxy)-1-cyclohexylmethyl 7β-[2-(2-aminothiazol-4-yl)acetamido]-3-[[[1-(2-dimethylaminoethyl) -1H-tetrazol-5-yl]thio]methyl]ceph-3-em-4-carboxylate dihydrochloride] showed a Bioavailability of 107.8%. Also, the “Plasma level of non-ester … 0.25 hr” value in data set [1] (po, 100 mg/kg, 15 min) came to 46100 ng/mL. In addition, the “Plasma level of non-ester … 0.5 hr” value in data set [1] (po, 100 mg/kg, 30 min) came to 32200 ng/mL. The “Plasma level of non-ester … 1.0 hr” value in data set [1] (po, 100 mg/kg, 60 min) worked out at 21200 ng/mL. In addition, in data set [1] (po, 100 mg/kg, 120 min), the exposure (AUC) was found to be 41900 ng·h/mL and the “Plasma level of non-ester … 2.0 hr” value turned out to be 4700 ng/mL.

As to `CCC(OC(=O)C1=C(CSc2nnnn2CCN(C)C)CS[C@@H]2[C@H](NC(=O)Cc3csc(N)n3)C(=O)N12)OC(=O)C1CCCCC1.Cl.Cl` (stereo partly drawn) [compound 3, 1-(Cyclohexylcarbonyloxy)propyl 7β-[2-(2-amino-thiazol-4-yl)acetamido]-3-[[[1-(2-dimethylaminoethyl) -1H-tetrazol-5-yl]thio]methyl]ceph-3-em-4-carboxylate dihydrochloride], in data set [1] (100 mg/kg, 120 min), the Bioavailability stood at 86.4%. Further, the “Plasma level of non-ester … 0.25 hr” value in data set [1] (po, 100 mg/kg, 15 min) is 59500 ng/mL. For the same compound, the “Plasma level of non-ester … 0.5 hr” value in data set [1] (po, 100 mg/kg, 30 min) amounted to 25000 ng/mL. Further, the “Plasma level of non-ester … 1.0 hr” value in data set [1] (po, 100 mg/kg, 60 min) worked out at 11700 ng/mL. In addition, in data set [1] (po, 100 mg/kg, 120 min), the AUC is 33500 ng·h/mL and the “Plasma level of non-ester … 2.0 hr” value came out at 1000 ng/mL.

`CCCC(OC(=O)C1=C(CSc2nnnn2CCN(C)C)CS[C@@H]2[C@H](NC(=O)Cc3csc(N)n3)C(=O)N12)OC(=O)C1CCCCC1.Cl.Cl` (stereo partly drawn) [compound 4, 1-(Cyclohexylcarbonyloxy)butyl 7β-[2-(2-aminothiazol-4-yl)acetamido]-3-[[[1-(2-dimethylaminoethyl) -1H-tetrazol-5-yl]thio]methyl]ceph-3-em-4-carboxylate dihydrochloride]: the Bioavailability in data set [1] (100 mg/kg, 120 min) is on record as 98.8%. The “Plasma level of non-ester … 0.25 hr” value in data set [1] (po, 100 mg/kg, 15 min) stood at 47000 ng/mL. For the same compound, the “Plasma level of non-ester … 0.5 hr” value in data set [1] (po, 100 mg/kg, 30 min) worked out at 38400 ng/mL. Besides, the “Plasma level of non-ester … 1.0 hr” value in data set [1] (po, 100 mg/kg, 60 min) was 14400 ng/mL. Besides, in data set [1] (po, 100 mg/kg, 120 min), the AUC came out at 38400 ng·h/mL and the “Plasma level of non-ester … 2.0 hr” value was 2800 ng/mL.

As to `CC(C)C(OC(=O)CC1CCCCC1)OC(=O)C1=C(CSc2nnnn2CCN(C)C)CS[C@@H]2[C@H](NC(=O)Cc3csc(N)n3)C(=O)N12.Cl.Cl` (stereo partly drawn) [compound 5, 1-(Cyclohexylacetoxy)-2-methylpropyl 7β-[2-(2-aminothiazol-4-yl)acetamido]-3-[[[1-(2-dimethylaminoethyl) 1H-tetrazol-5-yl]thio]methyl]ceph-3-em-4-carboxylate dihydrochloride], the Bioavailability in data set [1] (100 mg/kg, 120 min) is 88.8%. Besides, the “Plasma level of non-ester … 0.25 hr” value in data set [1] (po, 100 mg/kg, 15 min) was 29200 ng/mL. For the same compound, the “Plasma level of non-ester … 0.5 hr” value in data set [1] (po, 100 mg/kg, 30 min) turned out to be 46700 ng/mL. Also, the “Plasma level of non-ester … 1.0 hr” value in data set [1] (po, 100 mg/kg, 60 min) amounted to 11100 ng/mL. Also, in data set [1] (po, 100 mg/kg, 120 min), the AUC was found to be 34500 ng·h/mL and the “Plasma level of non-ester … 2.0 hr” value amounted to 2600 ng/mL.

As to `CN(C)CCn1nnnc1SCC1=C(C(=O)OCOC(=O)C(C)(C)C)N2C(=O)[C@@H](NC(=O)Cc3csc(N)n3)[C@H]2SC1` [compound A, reference compound], the Bioavailability in data set [1] (100 mg/kg, 120 min) came out at 41.8%. Besides, in data set [1] (po, 100 mg/kg, 15 min), the “Plasma level of non-ester … 0.25 hr” value came to 21000 ng/mL. Besides, the “Plasma level of non-ester … 0.5 hr” value in data set [1] (po, 100 mg/kg, 30 min) turned out to be 16200 ng/mL. Moreover, the “Plasma level of non-ester … 1.0 hr” value in data set [1] (po, 100 mg/kg, 60 min) was determined as 6100 ng/mL. Besides, in data set [1] (po, 100 mg/kg, 120 min), the “Plasma level of non-ester … 2.0 hr” value was 600 ng/mL.

For the compound `CN(C)CCn1nnnc1SCC1=C(C(=O)O)N2C(=O)[C@@H](NC(=O)Cc3csc(N)n3)[C@H]2SC1` [compound [II]], in data set [1] (sc, 0.25 h), the “Plasma level of non-ester … 0.25 hr” value was found to be 69200 ng/mL. Also, in data set [1] (sc, 0.5 h), the “Plasma level of non-ester … 0.5 hr” value worked out at 29000 ng/mL. The “Plasma level of non-ester … 1.0 hr” value in data set [1] (sc, 1 h) worked out at 13200 ng/mL. Further, the Bioavailability in data set [1] (sc, 120 min) is recorded as 100%. The “Plasma level of non-ester … 2.0 hr” value in data set [1] (sc, 2 h) was 1500 ng/mL. Besides, the antibacterial activity entry in the data set on Staphylococcus aureus, in the data set on Escherichia coli, in the data set with Klebsiella pneumoniae, in the data set with Proteus vulgaris, in the data set with Proteus mirabilis and in the data set with Proteus morganii was “potent antibacterial activity” in each case.
